Results from patent publication US20230374025A1, “FGFR INHIBITOR COMPOUND AND USE THEREOF” (SHENZHEN KANGSU PHARMACEUTICAL TECHNOLOGY CO., LTD., priority 2021, published 2023).

Legend:
Format in all cases: biochemical
FGFR1 V561M = molecular target: T1, FGFR1 V561M (Homo sapiens, UniProt P11362, V561M); assay: Assay I: inhibitory activity against FGFR mutants (HTRF KinEASE-TK); conditions: ATP 5 μM, substrate TK 1 μM
T1 construct: purchased Signalchem F04-13G
Procedure: (§1) Assay I: Determination of Inhibitory Activity Against FGFR Mutants
(§2) 1. Reagents and Equipment
(§3) 2.1 Preparation of 1× Kinase Reaction Buffer:
(§4) 1× Kinase reaction buffer was formulated with 1× volume of 5× kinase reaction buffer and 4× volume of water; 5 mM MgCl2; and 1 mM DTT.
(§5) 2.3 Screening of Compounds:
(§6) 1. Diluting a compound 4-fold in a dilution plate with DMSO, with a starting compound concentration of 2 mM.
(§7) 2. Diluting the compound 40-fold into 1× kinase reaction buffer and shaking it on a shaker for 20 minutes.
(§8) 5. Adding 1 μl of the compound diluted in buffer to each well, sealing the plate with a sealing membrane and centrifuging the plate at 1000 g for 30 seconds and leaving it at room temperature for 10 minutes.
(§9) 6. Formulating 2.5×TK-substrate-biotin and ATP mixture with 1× enzyme reaction buffer and adding 2 μl of K-substrate-biotin/ATP mixture to the reaction plate.
(§10) 7. Sealing the plate with a sealing membrane and centrifuging the plate at 1000 g for 30 seconds and allowing it to react at room temperature for 50 minutes.
(§11) 8. Formulating 4× Sa-XL 665 (250 nM) with HTRF assay buffer.
(§12) 9. Adding 5 μl Sa-XL 665 and 5 μl TK-Antibody-Cryptate to each well, centrifuging it at 1000 g for 30 seconds, and allowing it to react for 1 hour at room temperature.
(§13) 10. Reading fluorescence signals at 615 nm (Cryptate) and 665 nm (XL665) with Biotek.
(§14) 3.1 Calculation of the ratio for each well: the ratio was calculated as 665/615 nm.
(§15) 3.3 Calculation of IC50 and plotting of inhibition curves for the compounds.
(§16) The IC50 (half inhibition concentration) of a compound was obtained using the following non-linear fitting equation, wherein data analysis was performed using Graphpad 6.0 software.
(§17) Y=Bottom+(Top−Bottom)/(1+10^((Log IC50−X)*Hill Slope)) • X: log value of compound concentration; and Y: inhibition rate (% inh)
(§18) 3.4 Validation of Results
(§19) Data were exported from Envision and analyzed manually. The ratios were converted to inhibition rates and IC50 was calculated by Prism GraphPad 6.0 from the inhibition rates. IC50 was calculated again by the ratios to verify accuracy of the results.

FGFR2 V564F = molecular target: T2, FGFR2 V564F (Homo sapiens, UniProt P21802, V564F); assay: as above; conditions: ATP 10 μM, substrate TK 1 μM
T2 construct: purchased Signalchem F05-12FG
T2 sequence (P21802 22-821 V564F): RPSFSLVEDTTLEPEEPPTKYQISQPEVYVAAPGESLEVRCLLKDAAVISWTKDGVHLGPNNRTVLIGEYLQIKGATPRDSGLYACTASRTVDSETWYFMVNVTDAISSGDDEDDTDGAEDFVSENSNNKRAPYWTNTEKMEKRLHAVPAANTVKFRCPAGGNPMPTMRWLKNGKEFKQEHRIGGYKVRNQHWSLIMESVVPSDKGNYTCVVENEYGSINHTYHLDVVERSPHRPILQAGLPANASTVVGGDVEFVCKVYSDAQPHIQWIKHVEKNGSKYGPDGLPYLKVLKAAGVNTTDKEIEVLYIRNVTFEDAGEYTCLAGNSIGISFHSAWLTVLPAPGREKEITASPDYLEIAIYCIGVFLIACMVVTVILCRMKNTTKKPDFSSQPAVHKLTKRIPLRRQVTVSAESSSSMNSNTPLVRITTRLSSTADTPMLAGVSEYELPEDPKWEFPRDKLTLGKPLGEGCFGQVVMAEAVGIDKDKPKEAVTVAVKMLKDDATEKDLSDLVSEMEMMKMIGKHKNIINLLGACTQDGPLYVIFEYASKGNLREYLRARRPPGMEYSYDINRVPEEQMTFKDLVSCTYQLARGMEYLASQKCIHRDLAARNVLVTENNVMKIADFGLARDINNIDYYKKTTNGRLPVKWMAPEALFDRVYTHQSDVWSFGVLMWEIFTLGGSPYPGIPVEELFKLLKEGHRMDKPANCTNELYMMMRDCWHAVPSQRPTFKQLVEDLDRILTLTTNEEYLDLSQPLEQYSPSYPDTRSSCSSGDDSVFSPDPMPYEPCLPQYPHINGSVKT
Procedure: as §1, §2, §3, §4, §5, §6, §7, §8, §9, §10, §11, §12, §13, §14, §15, §16, §17, §18, §19

FGFR3 V555M = molecular target: T3, FGFR3 V555M (Homo sapiens, UniProt P22607, V555M); assay: as above; conditions: ATP 20 μM, substrate TK 1 μM
T3 construct: purchased Signalchem F06-12GG
T3 sequence (P22607 397-806 V555M limits assumed): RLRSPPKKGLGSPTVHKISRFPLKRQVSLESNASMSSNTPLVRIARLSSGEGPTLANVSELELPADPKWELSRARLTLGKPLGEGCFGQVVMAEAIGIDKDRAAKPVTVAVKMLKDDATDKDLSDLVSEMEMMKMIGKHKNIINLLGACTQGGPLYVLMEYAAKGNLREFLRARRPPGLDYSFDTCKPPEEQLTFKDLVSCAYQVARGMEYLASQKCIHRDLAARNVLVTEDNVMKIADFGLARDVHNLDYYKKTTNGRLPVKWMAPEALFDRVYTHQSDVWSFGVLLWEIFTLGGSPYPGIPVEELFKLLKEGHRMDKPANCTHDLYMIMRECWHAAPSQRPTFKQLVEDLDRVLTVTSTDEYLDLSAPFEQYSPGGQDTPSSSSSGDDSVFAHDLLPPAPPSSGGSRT
Procedure: as §1, §2, §3, §4, §5, §6, §7, §8, §9, §10, §11, §12, §13, §14, §15, §16, §17, §18, §19

VEGFR2 = molecular target: T4, VEGFR2 (Homo sapiens, UniProt P35968); assay: Assay I: VEGFR2 kinase inhibition (HTRF KinEASE-TK); conditions: ATP 5 μM, substrate TK 1 μM
T4 construct: purchased Carna 08-191
T4 sequence (P35968 20-1356): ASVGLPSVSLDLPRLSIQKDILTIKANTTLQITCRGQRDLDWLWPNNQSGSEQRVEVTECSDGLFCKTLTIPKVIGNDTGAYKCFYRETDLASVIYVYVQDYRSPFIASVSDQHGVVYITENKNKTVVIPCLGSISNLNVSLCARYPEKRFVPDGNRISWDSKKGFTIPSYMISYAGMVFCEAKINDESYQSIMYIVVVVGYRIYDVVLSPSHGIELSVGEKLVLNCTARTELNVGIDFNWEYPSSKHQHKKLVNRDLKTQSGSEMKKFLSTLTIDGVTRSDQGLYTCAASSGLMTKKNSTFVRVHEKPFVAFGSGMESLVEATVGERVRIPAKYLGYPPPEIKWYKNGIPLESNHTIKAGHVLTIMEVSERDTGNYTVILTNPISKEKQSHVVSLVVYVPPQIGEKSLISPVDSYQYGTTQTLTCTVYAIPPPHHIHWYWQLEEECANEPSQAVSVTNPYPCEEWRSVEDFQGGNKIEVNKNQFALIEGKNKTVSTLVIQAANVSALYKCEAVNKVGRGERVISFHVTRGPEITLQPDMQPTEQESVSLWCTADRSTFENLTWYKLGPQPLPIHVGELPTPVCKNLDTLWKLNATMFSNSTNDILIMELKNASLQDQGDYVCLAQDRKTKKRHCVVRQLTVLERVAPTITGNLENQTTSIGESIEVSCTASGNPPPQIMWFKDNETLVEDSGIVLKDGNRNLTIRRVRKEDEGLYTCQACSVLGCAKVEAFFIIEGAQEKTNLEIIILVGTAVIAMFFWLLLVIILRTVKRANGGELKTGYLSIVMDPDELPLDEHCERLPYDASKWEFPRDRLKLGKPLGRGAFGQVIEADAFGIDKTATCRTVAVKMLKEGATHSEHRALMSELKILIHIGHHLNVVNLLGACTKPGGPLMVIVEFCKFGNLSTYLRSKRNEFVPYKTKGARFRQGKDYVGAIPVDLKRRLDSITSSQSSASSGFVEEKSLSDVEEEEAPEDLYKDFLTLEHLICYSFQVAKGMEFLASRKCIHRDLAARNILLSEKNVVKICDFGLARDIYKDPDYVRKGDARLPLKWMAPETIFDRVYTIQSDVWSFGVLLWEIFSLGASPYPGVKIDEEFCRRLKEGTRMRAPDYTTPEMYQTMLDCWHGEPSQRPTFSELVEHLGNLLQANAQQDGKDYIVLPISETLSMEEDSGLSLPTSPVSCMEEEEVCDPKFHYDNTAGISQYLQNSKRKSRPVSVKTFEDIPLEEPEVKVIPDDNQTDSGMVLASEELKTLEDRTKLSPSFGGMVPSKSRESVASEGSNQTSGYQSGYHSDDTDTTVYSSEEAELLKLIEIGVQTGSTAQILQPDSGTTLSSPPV
Procedure: as §1, §2, §3, §4, §5, §6, §7
3. Formulating 2×FGFR1 V561M/FGFR2 V564F/FGFR3 K650E/VEGFR2 with 1× of enzyme reaction buffer.
4. Adding 2 μl FGFR1 V561M/FGFR2 V564F/FGFR3 K650E/VEGFR2 kinase (formulated in step 3) to each well of the reaction plate.
as §8, §9, §10, §11, §12, §13, §14, §15, §16, §17, §18, §19
Positive control IC50 was within 3 times of the average value

T1 sequence (P11362 22-822 V561M): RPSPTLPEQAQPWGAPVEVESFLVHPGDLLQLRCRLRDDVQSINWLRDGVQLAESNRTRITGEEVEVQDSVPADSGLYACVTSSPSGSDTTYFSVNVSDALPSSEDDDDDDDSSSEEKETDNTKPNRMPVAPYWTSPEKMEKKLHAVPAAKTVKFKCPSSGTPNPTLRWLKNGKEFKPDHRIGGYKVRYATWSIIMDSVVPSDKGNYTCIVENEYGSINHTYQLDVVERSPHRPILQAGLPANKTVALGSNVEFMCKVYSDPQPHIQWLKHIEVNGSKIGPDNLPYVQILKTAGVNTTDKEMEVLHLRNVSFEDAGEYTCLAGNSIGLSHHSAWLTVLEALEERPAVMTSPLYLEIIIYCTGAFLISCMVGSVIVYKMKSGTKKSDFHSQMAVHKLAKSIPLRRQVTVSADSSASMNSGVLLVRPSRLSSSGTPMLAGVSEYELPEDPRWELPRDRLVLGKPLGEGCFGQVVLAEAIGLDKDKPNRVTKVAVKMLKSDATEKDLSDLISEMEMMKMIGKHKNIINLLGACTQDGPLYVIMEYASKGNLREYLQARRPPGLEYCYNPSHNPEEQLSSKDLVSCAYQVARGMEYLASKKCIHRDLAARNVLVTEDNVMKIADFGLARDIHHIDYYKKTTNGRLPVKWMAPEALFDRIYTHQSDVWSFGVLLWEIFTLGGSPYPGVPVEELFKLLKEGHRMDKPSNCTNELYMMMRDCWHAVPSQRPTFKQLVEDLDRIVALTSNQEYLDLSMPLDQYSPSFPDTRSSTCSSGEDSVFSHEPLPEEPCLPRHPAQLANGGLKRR

Compound	IC50 (FGFR1 V561M) [nM]	IC50 (FGFR2 V564F) [nM]	IC50 (FGFR3 V555M) [nM]	IC50 (VEGFR2) [nM]
CC(Oc1ccc2[nH]nc(-c3nc4c([nH]3)CN(C(=O)C3CC3)C4)c2c1)c1c(Cl)cncc1Cl (stereo not shown) [Compound 25, Cyclopropyl (2-(5-(1-(3,5-dichloropyridin-4-yl)ethoxy)-1H-indazol-3-yl)-4,6-dihydropyrrolo[3,4-d]imidazol-5(1H)-yl)ketone]	0.98	0.41	0.26	10
C[C@@H](Oc1ccc2[nH]nc(-c3nc4c([nH]3)CN(C(=O)[C@@H]3CCCCN3)C4)c2c1)c1c(Cl)cncc1Cl [Compound 46, (2-(5-((R)-1-(3,5-dichloropyridin-4-yl)ethoxy)-1H-indazol-3-yl)-4,6-dihydropyrrolo[3,4-d]imidazol-5(1H)-yl)((S)-piperidin-2-yl)ketone]	0.65	0.29	0.33	9.9
CNC(=O)N1Cc2nc(-c3n[nH]c4ccc(O[C@H](C)c5c(Cl)cncc5Cl)cc34)[nH]c2C1 [Compound 33, (R)-2-(5-(1-(3,5-dichloropyridin-4-yl)ethoxy)-1H-indazol-3-yl)-N-methyl-4,6-dihydropyrrolo[3,4-d]imidazole-5(1H)-carboxamide]	1.3	0.45	0.46	6.3
CC(Oc1ccc2[nH]nc(-c3nc4c([nH]3)CN(S(=O)(=O)C3CC3)C4)c2c1)c1c(Cl)cncc1Cl (stereo not shown) [Compound 29, 3-(5-(Cyclopropylsulfonyl)-1,4,5,6-tetrahydropyrrolo[3,4-d]imidazol-2-yl)-5-(1-(3,5-dichloropyridin-4-yl)ethoxy)-1H-indazole]	1.2	1.6	0.7	64
CCS(=O)(=O)N1Cc2nc(-c3n[nH]c4ccc(OC(C)c5c(Cl)cncc5Cl)cc34)[nH]c2C1 (stereo not shown) [Compound 28, 5-(1-(3,5-dichloropyridin-4-yl)ethoxy)-3-(5-(ethylsulfonyl)-1,4,5,6-tetrahydropyrrolo[3,4-d]imidazol-2-yl)-1H-indazole]	1.6	0.3	0.52	30
C[C@@H](Oc1ccc2[nH]nc(-c3nc4c([nH]3)CN(C(=O)[C@@H]3CCCN3)C4)c2c1)c1c(Cl)cncc1Cl [Compound 44, 3-(5-(L-prolinyl)-1,4,5,6-tetrahydropyrrolo[3,4-d]imidazol-2-yl)-5-((R)-1-(3,5-dichloropyridin-4-yl)ethoxy)-1H-indazole]	0.82	0.32	0.43	5.3
CC(Oc1ccc2[nH]nc(-c3nc4c([nH]3)CN(S(C)(=O)=O)C4)c2c1)c1c(Cl)cncc1Cl (stereo not shown) [Compound 16, 5-(1-(3,5-dichloropyridin-4-yl)ethoxy)-3-(5-(methylsulfonyl)-1,4,5,6-tetrahydropyrrolo[3,4-d]imidazol-2-yl)-1H-indazole]	0.39	0.22	0.35	22.1
CC(Oc1ccc2[nH]nc(-c3nc4c([nH]3)CN(CCO)C4)c2c1)c1c(Cl)cncc1Cl (stereo not shown) [Compound 15, 2-(2-(5-(1-(3,5-dichloropyridin-4-yl)ethoxy)-1H-indazol-3-yl)-4,6-dihydropyrrolo[3,4-d]imidazol-5(1H)-yl)ethan-1-ol]	3.6	2	2	67
CC(Oc1ccc2[nH]nc(-c3nc4c([nH]3)CN(C(=O)[C@@H]3CCNC3)C4)c2c1)c1c(Cl)cncc1Cl (stereo partly drawn) [Compound 9, (2-(5-(1-(3,5-dichloropyridin-4-yl)ethoxy)-1H-indazol-3-yl)-4,6-dihydropyrrolo[3,4-d]imidazol-5(1H)-yl)((R)-pyrrolidin-3-yl)ketone]	0.41	0.27	0.16	5.6
CC(Oc1ccc2[nH]nc(-c3nc4c([nH]3)CN(C(=O)C3CC(O)C3)C4)c2c1)c1c(Cl)cncc1Cl (stereo not shown) [Compound 26, (2-(5-(1-(3,5-dichloropyridin-4-yl)ethoxy)-1H-indazol-3-yl)-4,6-dihydropyrrolo[3,4-d]imidazol-5(1H)-yl)(3-hydroxycyclobutyl)ketone]	0.38	0.17	0.13	7.1
CC(C1CCN(C)CC1)N1Cc2nc(-c3n[nH]c4ccc(O[C@H](C)c5c(Cl)cncc5Cl)cc34)[nH]c2C1 (stereo partly drawn) [Compound 37, 5-((R)-1-(3,5-Dichloropyridin-4-yl)ethoxy)-3-(5-(1-(1-methylpiperidin-4-yl)ethyl)-1,4,5,6-tetrahydropyrrolo[3,4-d]imidazol-2-yl)-1H-indazole]	3.9	0.68	0.58	49.3
CC(Oc1ccc2[nH]nc(-c3nc4c([nH]3)CN(C(=O)CN(C)C)C4)c2c1)c1c(Cl)cncc1Cl (stereo not shown) [Compound 14, 1-(2-(5-(1-(3,5-dichloropyridin-4-yl)ethoxy)-1H-indazol-3-yl)-4,6-dihydropyrrolo[3,4-d]imidazol-5(1H)-yl)-2-(dimethylamino)ethan-1-one]	0.11	0.09	0.03	6.1

Other lines, results leading:

IC50 (FGFR1 V561M) [nM]	IC50 (FGFR2 V564F) [nM]	IC50 (FGFR3 V555M) [nM]	IC50 (VEGFR2) [nM]	Compound
0.87	0.16	0.14	13.6	C[C@@H](Oc1ccc2[nH]nc(-c3nc4c([nH]3)CN(C(=O)CN3CC(O)C3)C4)c2c1)c1c(Cl)cncc1Cl [Compound 52, (R)-1-(2-(5-(1-(3,5-Dichloropyridin-4-yl)ethoxy)-1H-indazol-3-yl)-4,6-dihydropyrrolo[3,4-d]imidazol-5(1H)-yl)-2-(3-hydroxyazetidin-1-yl)ethan-1-one]
0.74	0.21	0.16	14.2	C[C@@H](Oc1ccc2[nH]nc(-c3nc4c([nH]3)CN(C(=O)CN3CCC3)C4)c2c1)c1c(Cl)cncc1Cl [Compound 51, (R)-2-(Azetidin-1-yl)-1-(2-(5-(1-(3,5-dichloropyridin-4-yl)ethoxy)-1H-indazol-3-yl)-4,6-dihydropyrrolo[3,4-d]imidazol-5(1H)-yl)ethan-1-one]
0.94	0.16	0.4	37.5	CC(Oc1ccc2[nH]nc(-c3nc4c([nH]3)CN(C(=O)CC#N)C4)c2c1)c1c(Cl)cncc1Cl (stereo not shown) [Compound 27, 3-(2-(5-(1-(3,5-dichloropyridin-4-yl)ethoxy)-1H-indazol-3-yl)-4,6-dihydropyrrolo[3,4-d]imidazol-5(1H)-yl)-3-oxopropionitrile]
0.26	0.23	0.1	2.4	C[C@@H](Oc1ccc2[nH]nc(-c3nc4c([nH]3)CN(C(=O)CN3CC[C@@H](O)C3)C4)c2c1)c1c(Cl)cncc1Cl [Compound 41, 1-(2-(5-((R)-1-(3,5-Dichloropyridin-4-yl)ethoxy)-1H-indazol-3-yl)-4,6-dihydropyrrolo[3,4-d]imidazol-5(1H)-yl)-2-((R)-3-hydroxypyrrolidin-1-yl)ethan-1-one]
1.1	1.2	0.19	3.7	CC(Oc1ccc2[nH]nc(-c3nc4c([nH]3)CN(C(=O)CN3CCC(C#N)C3)C4)c2c1)c1c(Cl)cncc1Cl (stereo not shown) [Compound 32, 1-(2-(2-(5-(1-(3,5-dichloropyridin-4-yl)ethoxy)-1H-indazol-3-yl)-4,6-dihydropyrrolo[3,4-d]imidazol-5(1H)-yl)-2-oxoethyl)pyrrolidine-3-carbonitrile]
1.2	0.21	0.35	8.4	C[C@@H](Oc1ccc2[nH]nc(-c3nc4c([nH]3)CN(C(=O)CN3CCCCC3)C4)c2c1)c1c(Cl)cncc1Cl [Compound 50, (R)-1-(2-(5-(1-(3,5-dichloropyridin-4-yl)ethoxy)-1H-indazol-3-yl)-4,6-dihydropyrrolo[3,4-d]imidazol-5(1H)-yl)-2-(piperidin-1-yl)ethan-1-one]
0.46	0.31	0.22	5.5	CC(Oc1ccc2[nH]nc(-c3nc4c([nH]3)CN(C(=O)CN3CCOCC3)C4)c2c1)c1c(Cl)cncc1Cl (stereo not shown) [Compound 13, 1-(2-(5-(1-(3,5-dichloropyridin-4-yl)ethoxy)-1H-indazol-3-yl)-4,6-dihydropyrrolo[3,4-d]imidazol-5(1H)-yl)-2-morpholinoethan-1-one]
